Measured values reported in the supplement of paper PMC11451515.

Assays:
Settings in all cases: 48 h
NOMO1 [1] = test: AUC of viability dose-response curve (% viability x log10 dose units); higher = less sensitive
Summary of the method: (§1)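 Leukemia cells adapted to each medium (500 or 1000 cells/well, 1536-well plates) were exposed to library compounds in DMSO for 48 h at 37°C at 11 threefold doses, 47 μM to 0.79 nM. Luminescence by CellTiter-Glo One was normalised per plate to DMSO and cell-free wells, then fitted with a four-parameter log-logistic curve on log10 dose. Curves above full viability were scaled and quality-control failures removed before area under the curve was integrated by trapezoidal rule.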

P12-Ichikawa [2] = test: as above
Summary of the method: as §1

SEM cells [3] = test: as above
Summary of the method: as §1

NOMO1 [4] = test: cell viability relative to DMSO control; higher = less cytotoxic
Summary of the method: (§2)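 Three leukemia lines were tested: NOMO1 and SEM at 500 cells/well and P12-Ichikawa at 1000 cells/well. Each was adapted for at least four passages in each medium and seeded in 5 μl in 1536-well plates, and library compounds in DMSO were pin-dosed from 47 μM to 0.79 nM in 11 threefold steps. After 48 h at 37°C, CellTiter-Glo One luminescence was read. Viability is a percentage relative to DMSO wells on each plate, with cell-free wells as background.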

P12-Ichikawa [5] = test: as above
Summary of the method: as §2

SEM cells [6] = test: as above
Summary of the method: as §2

COC1CCC(C(=O)c2ccc3nc4c(cc3c2)CCCO4)CC1 (stereo not drawn)
AUC of viability dose-response curve
Settings | NOMO1 [1] | P12-Ichikawa [2] | SEM cells [3]
HPLM + 10% dialyzed FBS | 421 | 458 | 458
RPMI 5 mM glucose + 10% FBS | 430 | 453 | 422
RPMI 5 mM glucose + 10% dialyzed FBS | 437 | 460 | 438

CN1[C@@H]2CC[C@H]1CC(OC(=O)c1c[nH]c3ccccc13)C2 (stereo partly drawn)
cell viability [%]
Settings | NOMO1 [4] | P12-Ichikawa [5] | SEM cells [6]
HPLM + 10% dialyzed FBS, 0.000781 µM | – | 125 | 111
HPLM + 10% dialyzed FBS, 0.00234 µM | – | 127 | 109
HPLM + 10% dialyzed FBS, 0.00702 µM | – | 119 | 118
HPLM + 10% dialyzed FBS, 0.0211 µM | – | 96.1 | 25.9
HPLM + 10% dialyzed FBS, 0.0632 µM | – | 110 | 130
HPLM + 10% dialyzed FBS, 0.19 µM | – | 117 | 130
HPLM + 10% dialyzed FBS, 0.569 µM | – | 116 | 126
HPLM + 10% dialyzed FBS, 1.71 µM | – | 126 | 117
HPLM + 10% dialyzed FBS, 5.12 µM | – | 111 | 114
HPLM + 10% dialyzed FBS, 15.4 µM | – | 114 | 114
HPLM + 10% dialyzed FBS, 46.1 µM | – | 111 | 124
RPMI 5 mM glucose + 10% FBS, 0.000781 µM | 115 | – | 113
RPMI 5 mM glucose + 10% FBS, 0.00234 µM | 125 | – | 115
RPMI 5 mM glucose + 10% FBS, 0.00702 µM | 120 | – | 124
RPMI 5 mM glucose + 10% FBS, 0.0211 µM | 114 | – | 17.8
RPMI 5 mM glucose + 10% FBS, 0.0632 µM | 129 | – | 123
RPMI 5 mM glucose + 10% FBS, 0.19 µM | 112 | – | 116
RPMI 5 mM glucose + 10% FBS, 0.569 µM | 106 | – | 111
RPMI 5 mM glucose + 10% FBS, 1.71 µM | 117 | – | 119
RPMI 5 mM glucose + 10% FBS, 5.12 µM | 124 | – | 137
RPMI 5 mM glucose + 10% FBS, 15.4 µM | 114 | – | 98.6
RPMI 5 mM glucose + 10% FBS, 46.1 µM | 99.3 | – | 93.6
RPMI 5 mM glucose + 10% dialyzed FBS, 0.000781 µM | 119 | 120 | –
RPMI 5 mM glucose + 10% dialyzed FBS, 0.00234 µM | 127 | 115 | –
RPMI 5 mM glucose + 10% dialyzed FBS, 0.00702 µM | 119 | 121 | –
RPMI 5 mM glucose + 10% dialyzed FBS, 0.0211 µM | 107 | 107 | –
RPMI 5 mM glucose + 10% dialyzed FBS, 0.0632 µM | 109 | 116 | –
RPMI 5 mM glucose + 10% dialyzed FBS, 0.19 µM | 115 | 116 | –
RPMI 5 mM glucose + 10% dialyzed FBS, 0.569 µM | 113 | 120 | –
RPMI 5 mM glucose + 10% dialyzed FBS, 1.71 µM | 118 | 117 | –
RPMI 5 mM glucose + 10% dialyzed FBS, 5.12 µM | 119 | 118 | –
RPMI 5 mM glucose + 10% dialyzed FBS, 15.4 µM | 104 | 113 | –
RPMI 5 mM glucose + 10% dialyzed FBS, 46.1 µM | 94.9 | 107 | –

AUC of viability dose-response curve
Settings | HPLM + 10% dialyzed FBS | RPMI 5 mM glucose + 10% FBS | RPMI 5 mM glucose + 10% dialyzed FBS
NOMO1 [1] | 436 | 459 | 444
P12-Ichikawa [2] | 463 | 468 | 466

OC[C@H]1O[C@H](C[C@@H]1O)[N]2C=NC3=C2\N=C/NC[C@H]3O
AUC of viability dose-response curve
Settings | NOMO1 [1] | P12-Ichikawa [2] | SEM cells [3]
HPLM + 10% dialyzed FBS | 444 | 457 | 450
RPMI 5 mM glucose + 10% FBS | 465 | 457 | 466
RPMI 5 mM glucose + 10% dialyzed FBS | 434 | 475 | 469

C/C=C/C[C@@H](C)C(=O)[C@H]1C(=O)N[C@@H](C(C)C)C(=O)N(C)CC(=O)N(C)[C@@H](CC(C)C)C(=O)N[C@@H](C(C)C)C(=O)N(C)[C@@H](CC(C)C)C(=O)N[C@@H](C)C(=O)N[C@H](C)C(=O)N(C)[C@@H](CC(C)C)C(=O)N(C)[C@@H](CC(C)C)C(=O)N(C)[C@@H](C(C)C)C(=O)N1C
SEM cells [6], RPMI 5 mM glucose + 10% dialyzed FBS
Settings | cell viability [%]
0.000781 µM | 125
0.00234 µM | 125
0.00702 µM | 108
0.0211 µM | 151
0.0632 µM | 131
0.19 µM | 120
0.569 µM | 123
1.71 µM | 108
5.12 µM | 108
15.4 µM | 71.6
46.1 µM | 23.7

AUC of viability dose-response curve
Settings | NOMO1 [1] | P12-Ichikawa [2] | SEM cells [3]
HPLM + 10% dialyzed FBS | 441 | 424 | 427
RPMI 5 mM glucose + 10% FBS | 466 | 413 | 406
RPMI 5 mM glucose + 10% dialyzed FBS | 461 | 411 | 424

COC(=O)Nc1ccc(-c2nc(N3CCOCC3)c3cnn(C4CCN(C(=O)OC)CC4)c3n2)cc1
AUC of viability dose-response curve
Settings | NOMO1 [1] | P12-Ichikawa [2] | SEM cells [3]
HPLM + 10% dialyzed FBS | 337 | 343 | 337
RPMI 5 mM glucose + 10% FBS | 392 | 339 | 375
RPMI 5 mM glucose + 10% dialyzed FBS | 336 | 331 | 382

O=C(Nc1cccc(Cl)c1)Nc1ncc(CCNc2ncnc3ccsc23)s1
AUC of viability dose-response curve
Settings | NOMO1 [1] | P12-Ichikawa [2] | SEM cells [3]
HPLM + 10% dialyzed FBS | 362 | 290 | 301
RPMI 5 mM glucose + 10% FBS | 374 | 306 | 272
RPMI 5 mM glucose + 10% dialyzed FBS | 385 | 301 | 274

COC1=CC2=NC=CC(=C2C=C1)OC3=CN=C(NC(=O)C/4=C(C)/N(CC(C)(C)O)N(C4=O)C5=CC=CC=C5)C=C3
cell viability [%]
Settings | NOMO1 [4] | P12-Ichikawa [5] | SEM cells [6]
HPLM + 10% dialyzed FBS, 0.000781 µM | 82 | 87.7 | 82.3
HPLM + 10% dialyzed FBS, 0.00234 µM | 87.4 | 92.6 | 84.7
HPLM + 10% dialyzed FBS, 0.00702 µM | 86.3 | 87.6 | 63.1
HPLM + 10% dialyzed FBS, 0.0211 µM | 101 | 91.3 | 83.6
HPLM + 10% dialyzed FBS, 0.0632 µM | 103 | 97.1 | 89.4
HPLM + 10% dialyzed FBS, 0.19 µM | 107 | 96.4 | 86.1
HPLM + 10% dialyzed FBS, 0.569 µM | 98.9 | 95 | 79.1
HPLM + 10% dialyzed FBS, 1.71 µM | 96.4 | 91.6 | 52.1
HPLM + 10% dialyzed FBS, 5.12 µM | 69.1 | 76.9 | 32.7
HPLM + 10% dialyzed FBS, 15.4 µM | 88 | 85.7 | 36.4
HPLM + 10% dialyzed FBS, 46.1 µM | 62.1 | 74.4 | 31
RPMI 5 mM glucose + 10% FBS, 0.000781 µM | 78.8 | 89.4 | 108
RPMI 5 mM glucose + 10% FBS, 0.00234 µM | 92 | 87.9 | 96.2
RPMI 5 mM glucose + 10% FBS, 0.00702 µM | 88.6 | 89.7 | 91.6
RPMI 5 mM glucose + 10% FBS, 0.0211 µM | 95 | 92.1 | 108
RPMI 5 mM glucose + 10% FBS, 0.0632 µM | 91.7 | 92.1 | 103
RPMI 5 mM glucose + 10% FBS, 0.19 µM | 91.7 | 91.9 | 99
RPMI 5 mM glucose + 10% FBS, 0.569 µM | 91.2 | 89.5 | 82
RPMI 5 mM glucose + 10% FBS, 1.71 µM | 98.7 | 90.5 | 60.9
RPMI 5 mM glucose + 10% FBS, 5.12 µM | 85.6 | 70.1 | 29.3
RPMI 5 mM glucose + 10% FBS, 15.4 µM | 93.4 | 90 | 36
RPMI 5 mM glucose + 10% FBS, 46.1 µM | 81.8 | 63.6 | 31
RPMI 5 mM glucose + 10% dialyzed FBS, 0.000781 µM | 73.7 | 81.1 | 74.1
RPMI 5 mM glucose + 10% dialyzed FBS, 0.00234 µM | 86.8 | 88.7 | 82.1
RPMI 5 mM glucose + 10% dialyzed FBS, 0.00702 µM | 91.6 | 89.8 | 76.7
RPMI 5 mM glucose + 10% dialyzed FBS, 0.0211 µM | 88.2 | 98.5 | 77.8
RPMI 5 mM glucose + 10% dialyzed FBS, 0.0632 µM | 97.7 | 96.6 | 79.4
RPMI 5 mM glucose + 10% dialyzed FBS, 0.19 µM | 83.1 | 93.2 | 80
RPMI 5 mM glucose + 10% dialyzed FBS, 0.569 µM | 96.6 | 94.9 | 60.5
RPMI 5 mM glucose + 10% dialyzed FBS, 1.71 µM | 84.8 | 91.4 | 50.3
RPMI 5 mM glucose + 10% dialyzed FBS, 5.12 µM | 77.2 | 78.8 | 32.8
RPMI 5 mM glucose + 10% dialyzed FBS, 15.4 µM | 94.1 | 81.9 | 33.2
RPMI 5 mM glucose + 10% dialyzed FBS, 46.1 µM | 64 | 61.2 | 27.4

AUC of viability dose-response curve
Settings | HPLM + 10% dialyzed FBS | RPMI 5 mM glucose + 10% FBS | RPMI 5 mM glucose + 10% dialyzed FBS
NOMO1 [1] | 430 | 431 | 411
P12-Ichikawa [2] | 425 | 414 | 420
